Data published in US5681820A, “Guanidinoalkyl glycine β-amino acids useful for inhibiting tumor metastasis” (G. D. Searle & Co., priority 1995, dated 1997).
Counter-ions that a name gives are not always drawn.

What was measured:
[1] = molecular target: T1, human vitronectin receptor (αv β3) (Homo sapiens, UniProt P05106+P06756); assay: Solid Phase Receptor Assay: purified vitronectin receptor (αv β3), competition with biotinylated vitronectin; assay type: binding; conditions: 1 nM biotinylated vitronectin, read-out: VnR/IC50
T1 construct: Human vitronectin receptor(αv β3) was purified from human placenta; from tissue; host or cells: human placenta
Experimental: Human vitronectin receptor(αv β3) was purified from human placenta as previously described [Pytela et al., Methods in Enzymology, 144:475-489 (1987)]. Human vitronectin was purified from fresh frozen plasma as previously described [Yatohgo et al., Cell Structure and Function, 13:281-292 (1988)]. Biotinylated human vitronectin was prepared by coupling NHS-biotin from Pierce Chemical Company (Rockford, Ill.) to purified vitronectin as previously described [Charo et al., J. Biol. Chem., 266(3):1415-1421 (1991)]. Assay buffer, OPD substrate tablets, and RIA grade BSA were obtained from Sigma (St. Louis, Mo.). Anti-biotin antibody was obtained from Calbiochem (La Jolla, Calif.). GRGDSP peptide was purchased from Bachem (Torrance, Calif.). Linbro microtiter plates were obtained from Flow Labs (McLean, Va.). ADP reagent was obtained from Sigma (St. Louis, Mo.).
Solid Phase Receptor Assays
This assay was essentially the same as previously reported [Niiya et al., Blood, 70:475-483 (1987)]. […] The plate was read with a microtiter plate reader at a wavelength of 450 nm and when the maximum-binding control wells reached an absorbance of about 1.0, the final A450 were recorded for analysis. The data were analyzed using a macro written for use with the EXCEL™ spreadsheet program. The mean, standard deviation, and %CV were determined for duplicate concentrations. […]

[2] = test system: M21 human melanoma cells (αv β3-dependent adhesion); assay: M21 Melanoma Cell Adhesion Assay: αv β3-dependent adhesion to human fibrinogen; assay type: cell-based; conditions: 0.5 h, 200 μM Mn++, 30 minutes, 37° C.
Experimental: M21 Melanoma Cell Adhesion Assasy
This assay involves an αv β3 -dependent adhesion of M21 human melanoma cells to human fibrinogen-coated plastic tissue culture dishes.
Fibrinogen was purified from human plasma. Fibronectin and plasminogen were eliminated from the preparation by passing the sample over gelatin-sepharose 4B and lysine-sepharose 4B resins, respectively. The fibrinogen is diluted to 10 μg/mL in coating buffer (20 mM Tris-HCl, 150 mM NaCl, pH 7.4). 100 μL of diluted fibrinogen is added to each well of a 96-well Immulon 2 microtiter plate (Dynatech; Chantilly, Va.) and allowed to coat overnight at 4° C. […]
M21 human melanoma cells were provided by Dr. J. Smith, La Jolla Cancer Research Institute. […] Cells are counted and suspended to a density of 2×10^6 /mL in adhesion assay buffer containing 200 μM Mn^++. […]
Following adhesion, plates are gently washed 3 times with 200 μL of wash buffer (50 mM Tris-HCl, 150 mM NaCl, pH 7.4) using large bore pipet tips. Plates are briefly blotted dry and 100 μL of cell lysis buffer (50 mM sodium acetate, pH 5.0, 0.5% Triton X-100, 0.3 mg/mL p-nitrophenyl phosphate [Sigma] is added to each well. Plates are incubated for 60 minutes at 37° C. and 50 μL of 1N NaOH is added to stop the reaction. The absorbance of the wells at […] is read using an automatic plate reader.

A3827 cells = assay: Cell Adhesion Assay: adhesion of A3827 cells to fibrinogen; assay type: cell-based; conditions: 300 μM MnCl2, 1 hour, 37° C.
Experimental: Fibrinogen was purified from human plasma. Fibronectin and plasminogen were eliminated from the preparation by passing the sample over gelatin-sepharose 4B and lysine-sepharose 4B resins, respectively. The fibrinogen was resuspended at a concentration of 10 μg/mL in 100 mM sodium bicarbonate, pH 9.0. Immulon II (Nunc) microtiter plates were coated by incubating with 100 μL/well of fibrinogen solution overnight at 4° C. After coating with fibrinogen, plates were rinsed three times with phosphate buffered saline (PBS) and 100 μL of a 1% bovine serum albumin (BSA) solution was added to each well and stored at -20° C. until needed. A3827 cells were harvested from subconfluent 75 cm^2 culture flasks with 2 mM EDTA in PBS and resuspended at 5×10^5 cells/mL in Dulbecco's PBS without calcium or magnesium (Sigma #5652) containing 1% BSA. MnCl2 was added to a final concentration of 300 μM. Test compounds were resuspended in PBS and added to the cell suspension before serial dilution. […] Adherent cells were quantitated using a non-radioactive cell proliferation assay (Promega #G5430) using the instructions provided by the supplier. Plates were allowed to equilibrate overnight at room temperature in a humidified chamber and a Biotek EL312 microplate spectrophotometer was used to measure the difference in absorbance at […]. […]

IC50 [1] [nM] | IC50 [2] [nM] | IC50 (A3827 cells) [nM] | Structure (SMILES)
987 | 1410 | – | CCOC(=O)CC(NC(=O)CNC(=O)CCCNC(=N)N)c1cccnc1 (racemic) [Example 3-ethyl ester, (±) ethyl β-[[2-[[4-[(aminoiminomethyl)amino]-1-oxobutyl]amino]-1-oxoethyl]amino]-3-pyridinepropanoate]
– | 40.4 | 30 | N=C(N)NCCCCC(=O)NCC(=O)NC(CC(=O)O)c1cccnc1 (stereo not drawn) [Example 1, β-[[2-[[5-[(aminoiminomethyl)amino]-1-oxopentyl]amino]-1-oxoethyl]amino]-3-pyridinepropanoic acid, bistrifluoroacetate salt]
142 | – | – | N=C(N)NCCCCC(=O)N1CCC[C@H]1C(=O)N[C@@H](CC(=O)O)c1cccnc1 [Example 2, βS-[[[1-[5-[(aminoiminomethyl)amino]-1-oxopentyl]pyrrolidin-2-yl]carbonyl]amino-3-pyridinepropanoic acid, bistrifluoroacetate salt]
